Measurements reported in patent US11274115B2, “Imidazoquinoline derivatives and their use in therapy” (GLAXOSMITHKLINE BIOLOGICALS SA, priority 2016, dated 2022).
Like-named read-outs stand apart in the source and are kept apart here.

Key:
Assay type in all cases: cell-based
human TLR8 = target: T1, human TLR8 (Homo sapiens, UniProt Q9NR97); assay: hTLR8 agonist reporter assay in HEK293 cells (NFκB-SEAP); details: for EC50: read-out: hTLR8 ED50
T1 construct: host or cells: HEK293
T1 sequence (Q9NR97 27-1041): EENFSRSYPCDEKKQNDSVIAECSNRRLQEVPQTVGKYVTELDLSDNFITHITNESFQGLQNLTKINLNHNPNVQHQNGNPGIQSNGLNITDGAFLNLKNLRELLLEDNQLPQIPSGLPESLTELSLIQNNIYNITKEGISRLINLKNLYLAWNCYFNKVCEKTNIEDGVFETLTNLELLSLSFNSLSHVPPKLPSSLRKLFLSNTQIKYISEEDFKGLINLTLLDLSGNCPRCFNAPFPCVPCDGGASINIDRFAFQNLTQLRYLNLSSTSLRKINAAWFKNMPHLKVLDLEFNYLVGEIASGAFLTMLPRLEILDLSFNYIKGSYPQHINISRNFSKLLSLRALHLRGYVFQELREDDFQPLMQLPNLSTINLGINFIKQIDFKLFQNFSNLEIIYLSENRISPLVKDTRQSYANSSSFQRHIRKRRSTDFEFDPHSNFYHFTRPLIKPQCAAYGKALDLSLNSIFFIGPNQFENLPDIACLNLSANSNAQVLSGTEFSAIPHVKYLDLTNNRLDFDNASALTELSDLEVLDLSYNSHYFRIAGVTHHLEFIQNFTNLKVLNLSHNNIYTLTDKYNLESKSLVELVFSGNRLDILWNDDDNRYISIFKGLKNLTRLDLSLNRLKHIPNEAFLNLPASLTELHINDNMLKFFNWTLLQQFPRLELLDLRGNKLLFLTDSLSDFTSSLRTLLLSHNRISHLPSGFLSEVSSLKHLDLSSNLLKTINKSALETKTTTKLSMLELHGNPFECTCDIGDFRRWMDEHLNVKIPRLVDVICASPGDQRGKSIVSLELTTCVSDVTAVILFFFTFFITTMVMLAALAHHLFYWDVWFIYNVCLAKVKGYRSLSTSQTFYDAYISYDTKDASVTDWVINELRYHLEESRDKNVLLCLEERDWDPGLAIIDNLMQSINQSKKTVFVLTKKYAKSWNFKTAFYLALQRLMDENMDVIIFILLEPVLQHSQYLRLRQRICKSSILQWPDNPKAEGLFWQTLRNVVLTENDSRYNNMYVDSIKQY
Description: Assay for hTLR7 and hTLR8 Agonist Activity in HEK-293 Cells
Determination of TLR agonist activity was performed using the HEK293 […]. This assay measures TLR7 and TLR8 selectivity and potency of the compounds tested. HEK293 cells expressing human TLR7 or TLR8 and NFκB responsive Secreted Embryonic Alkaline Phosphatase (SEAP) reporter gene were obtained from InvivoGen (San Diego, Calif.). These cells were maintained in culture media of Dulbecco's Modified Eagle Medium (DMEM) (Invitrogen, Grand Island, N.Y.), 10% Fetal Bovine Serum (FBS) (Sigma, St. Louis, Mo.) and selection antibiotics (Invitrogen, and Invivogen). HEK293 stably transfected with human TLR7 (hTLR7) or human TLR8 (hTLR8) were stimulated for 24 h with aqueous formulations of test compounds and culture supernatants were analyzed for NFκB activation using the colorimetric SEAP detection kit QuantBlue (InvivoGen).

[1] = tested on: human peripheral blood mononuclear cells (hPBMCs); assay: IFN-α induction in hPBMCs; details: 24 h
Description: (§1) Assays to Measure Cytokine Induction
(§2) Test compounds were evaluated for cytokine induction in human peripheral blood mononuclear cells (hPBMCs).
(§3) Primary human PBMCs were isolated from fresh blood from healthy donors via Ficoll gradient separation and plated at 0.5×10^6 cells/well in 96-well tissue culture plates (RPMI-1640 plus 10% FBS). hPBMCs were maintained with RPMI-1640 culture media (Invitrogen, Grand Island, N.Y.), antibiotics (Invitrogen) and 10% FBS (Sigma).
(§4) Incubation and Assays for IFN-γ, IFN-α and TNF-α
(§5) hPBMCs were stimulated for 24 h with aqueous formulations of test compounds. Culture supernatants were analyzed for TNF-α and IFN-γ induction using multiplex kits (FluoroKine multiplex kits from R&D Systems, Minneapolis, Minn.) and for IFN-α induction using human IFN-α VeriKine ELISA kit (Pestka Biomedical Laboratories, Inc., Piscataway, N.J.).

[2] = tested on: human peripheral blood mononuclear cells (hPBMCs); assay: IFN-γ induction in hPBMCs; details: 24 h
Description: as §1, §2, §3, §4, §5

EC50 (human TLR8; Table 1, FIG. 2, 24 h stimulation, aqueous formulations): 100 nM
EC50 (human TLR8; Table 2, FIG. 4, another occasion, * = only very low levels of NFKB activation were detected): 800 nM
hTLR8 agonist activity, in words (human TLR8; Table 3, FIG. 6): agonist of both TLR7 and TLR8
EC50 (human TLR8; Table 3, FIG. 6, another occasion, * = only very low levels of NFKB activation were detected): 590 nM
EC50 (human TLR8; Table 4, FIG. 8, another occasion): 710 nM
SMILES: CCCCCCCC/C=C\CCCCCCCC(=O)OC[C@H](COP(=O)(O)OCCOc1ccc2c(c1)nc(N)c1nc(CCCC)n(CCO)c12)OC(=O)CCCCCCC/C=C\CCCCCCCC [Example 1]
hTLR8 agonist activity, in words (human TLR8; text on Table 1, FIG. 2): significantly more potent as an agonist of hTLR7 and hTLR8 than Comparative Example 2
hTLR8 agonist activity, in words (human TLR8; text on Table 2, FIG. 4): more active than Comparative Example 2 as an agonist of hTLR7 and hTLR8
IFN-α induction, in words ([1]; FIG. 10): equipotent at inducing IFN-α and these were more potent than Comparative Example 1 and Comparative Example 2 in this assay at a lower dose
IFN-α induction, in words ([1]; FIG. 12, another occasion): more potent at inducing IFN-α than Comparative Examples 1, 2 and 3
IFN-α induction, in words ([1]; FIG. 14, another occasion): very effective at inducing IFN-α
IFN-α induction, in words ([1]; FIG. 16, another occasion): good activity in inducing IFN-α
IFN-γ induction, in words ([2]; FIG. 9): more potent than Comparative Example 3 but less potent than Comparative Example 1
IFN-γ induction, in words ([2]; FIG. 11, another occasion): potent at inducing IFN-γ and each was more potent than Comparative Example 3
